Our source for the MIC values is patent publication US11919860B1 (priority 2023, dated 2024).

Assay [1] has as its system MDR strain of Mycobacterium tuberculosis. Kind of assay: Anti-tubercular activity, colorimetric Resazurin Microplate Assay (REMA). Type of assay: cell-based. To be noted: 192 h, read-out: Anti-tubercular activity against Mycobacterium tuberculosis MDR (MIC). In general terms: Resazurin is reduced to fluorescent resorufin, in cell work by metabolically active cells.
For assay [2], the system named is XDR strain of Mycobacterium tuberculosis. The description is as above. It is filed as cell-based. The note with it: 192 h, read-out: Anti-tubercular activity against Mycobacterium tuberculosis XDR (MIC).

Usually MIC stands for the lowest concentration that inhibits growth of the organism. As for `CC(C)OC(=O)c1cc[n+](CC(=O)c2ccccc2)cc1.[Br-]` [Compound 4a, 4-(Isopropoxycarbonyl)-1-(2-oxo-2-phenylethyl)pyridin-1-ium Bromide], the MIC in assay [1] and in assay [2] was 2 µg/mL in each case.

Take `CC(C)OC(=O)c1cc[n+](CC(=O)c2ccc(F)cc2)cc1.[Br-]` [Compound 4b, 1-(2-(4-Fluorophenyl)-2-oxoethyl)-4-(isopropoxycarbonyl)pyridin-1-ium bromide]: the MIC in assay [1] was found to be 1 µg/mL; in assay [2], 16 µg/mL.
